Results reported in US12220446B2, “Use of upstream open reading frame 45aa-uORF nucleotide sequence of PTEN gene and polypeptide coded by 45aa-uORF” (THE FIRST AFFILIATED HOSPITAL, SUN YAT-SEN UNIVERSITY, priority 2017, dated 2025).

Experiments:
U251 cells [1] = assay: Cell viability with CCK-8 after adding chemically synthesized polypeptide; type: cell-based; conditions: 25 μM, washed out after 4 hours, culture for 72 hours
U251 cells [2] = assay: Ability of FITC-labelled micropeptide to enter cells (fluorescence microscopy); type: cell-based; conditions: FITC-attached micropeptide, 20 μM, 4 hours
Method: U251 cells were inoculated onto a glass slide at the density of 50%, and different concentrations of PTEN-45aa micropeptide t attached with FITC fluorescent groups (the micropeptide was dissolved in DMSO with a concentration being 20 μg/μL) were added to treat cells for 4 hours, then fixed with Faure Marin, and observed and photographed under a fluorescence microscope.

U251 neuroglioma cells = assay: Lentiviral overexpression of 45aa-uORF in U251 cells: cell cycle, CCK-8 growth curve, clone formation assay, soft agar; type: cell-based; conditions: stably overexpressed via lentivirus vector vs U251-GFP control cells
Method: A vector for overexpressed 45aa-uORF-GFP (the skeleton of the vector is pCDH-CMV-MCS-EF1-Puro) was constructed and then used to transfect into HEK-293T cells together with lentivirus skeleton vectors PSPAX2, PMD2G in a ratio of 1:3:1 to package the lentivirus. The medium supernatants with the lentivirus were collected at 48 hours and 72 hours, respectively, and then used to infect U251 cells (added with 8 μg/ml polybrene to improve the infection efficiency). Puromycin ([…]) was employed for screening and removed three days later, and then the cells were proliferated normally. […]
1.5 Million U251 glioma cells of lentivirus overexpressed 45aa-uORF were inoculated into a T25 culture flask. […] Then, after being centrifuged and washed with PBS once, the precipitate was resuspended in 25 μg/mL Propidium Iodide (PI, sigma)/PBS solution, stained for 30 minutes away from light, and then detected on cell-cycle distribution thereof.
U251-GFP control cells or U251-45aa-uORF-GFP cells were inoculated into a 96-well plate in a quantity of 2000 cells per well. […] After cell adherence to the wall, the CCK-8 (Dojindo, CK04) reagent was added by 10 μL per well every 24 hours for culture at 37° C. for 1-4 hours, and then the absorbance (OD) of […] was detected. The absorbance value was directly proportional to the number of cells. […]

[3] = system: U251 neuroglioma transplanted tumors; assay: U251 tumor subcutaneously implanted in nude mice, intratumoral peptide injection; type: in vivo; conditions: 25 μg/tumor every other day, 5-6 medications, vs control polypeptide of shuffled sequence
Method: In one aspect, the anti-tumor ability of the 45aa-uORF coded micropeptide is verified in vivo by animal experiments in the present invention. Mice are subcutaneously inoculated with 2 million U251 neuroglioma cells. Thirty days later, transplanted tumors are treated with the chemically synthesized 45aa-uORF coded micropeptide (25 ug/tumor) every other day.
U251 cells were inoculated to the left and right sides of nude mice by 2 million at each point. Thirty days later, the formation of tumors was observed, and the tumors were averagely divided into a control group and an experimental group by size (five nude mice and ten tumors in each group). The control group was injected with a control polypeptide every other day, and the experimental group was injected with the 45aa-uORF polypeptide every other day. Each tumor was injected with 25 μg synthetic peptide. The long diameters and short diameters of the tumors were measured before the medication, and after 5-6 times medications, the nude mice were sacrificed, and tumors were taken out, photographed and weighed. Tumor volume=½*long diameter*the square of short diameter

[4] = listed as 45aa-uORF coded polypeptide

Sequence: MRDGGGRGPEPLSAPVSSRGGSALGEPAGLRRRQRRRFSPPLRLF (listed as Homo sapiens) [PTEN-45aa, oligopeptide of 45 amino acids coded by the 45aa-uORF in the 5′UTR of human PTEN gene]
- growth and proliferation of glioma cells (cell viability, CCK-8) (U251 cells [1]; listed as 45aa-uORF coded micropeptide): significantly suppress the growth and proliferation
- growth and proliferation of glioma cells (cell viability, CCK-8) (U251 cells [1]; [4]): significantly suppress the growth of glioma cells
- ability of the micropeptide to enter cells (U251 cells [2]; [4]): can enter U251 cells
- ability of the micropeptide to enter cells (U251 cells [2]; listed as PTEN-45aa micropeptide): could enter the U251 cells smoothly
- growth and proliferation of U251 glioma cells (U251 neuroglioma cells): significantly suppress the growth and proliferation
- clone formation of U251 neuroglioma cells (CFA, soft agar) (U251 neuroglioma cells; two weeks): significantly suppress the growth, proliferation and clone formation
- growth and formation of U251 transplanted tumors [3]: significantly suppress the growth and formation of the tumors
